System: 317291-083-R-J1-PDC complex spheroids, viability
Experiment: Anticancer human tumor 317291-083-R-J1-PDC patient-derived soft tissue sarcoma cell line growth inhibition [GQUAD]
Conditions: for IC50: curve of first compound; for viability, T/C: stronger effect = lower value
Procedure, shortened: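 Viability of tumor cells grown as complex spheroids with endothelial and stromal cells, exposed to drug combinations. Top concentration at or near clinical Cmax (else 10 microM), diluted in half-log increments.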

[1] = second compound 0.0316 µM, first compound 0.0316 µM
[2] = second compound 0.0316 µM, first compound 0.1 µM
[3] = second compound 0.0316 µM, first compound 0.316 µM
[4] = second compound 0.0316 µM, first compound 1 µM
[5] = second compound 0.0316 µM, first compound 3.16 µM
[6] = second compound 0.0316 µM, first compound 10 µM
[7] = second compound 0.1 µM, first compound 0.0316 µM
[8] = second compound 0.1 µM, first compound 0.1 µM
[9] = second compound 0.1 µM, first compound 0.316 µM
[10] = second compound 0.1 µM, first compound 1 µM
[11] = second compound 0.1 µM, first compound 3.16 µM
[12] = second compound 0.1 µM, first compound 10 µM
[13] = second compound 0.316 µM, first compound 0.0316 µM
[14] = second compound 0.316 µM, first compound 0.1 µM
[15] = second compound 0.316 µM, first compound 0.316 µM
[16] = second compound 0.316 µM, first compound 1 µM
[17] = second compound 0.316 µM, first compound 3.16 µM
[18] = second compound 0.316 µM, first compound 10 µM
[19] = second compound 1 µM, first compound 0.0316 µM
[20] = second compound 1 µM, first compound 0.1 µM
[21] = second compound 1 µM, first compound 0.316 µM
[22] = second compound 1 µM, first compound 1 µM
[23] = second compound 1 µM, first compound 3.16 µM
[24] = second compound 1 µM, first compound 10 µM
[25] = second compound 3.16 µM, first compound 0.0316 µM
[26] = second compound 3.16 µM, first compound 0.1 µM
[27] = second compound 3.16 µM, first compound 0.316 µM
[28] = second compound 3.16 µM, first compound 1 µM
[29] = second compound 3.16 µM, first compound 3.16 µM
[30] = second compound 3.16 µM, first compound 10 µM
[31] = second compound 10 µM, first compound 0.0316 µM
[32] = second compound 10 µM, first compound 0.1 µM
[33] = second compound 10 µM, first compound 0.316 µM
[34] = second compound 10 µM, first compound 1 µM
[35] = second compound 10 µM, first compound 3.16 µM
[36] = second compound 10 µM, first compound 10 µM
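Also: spheroids exposed to compounds for one week before readout.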
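For viability, T/C in this document: percent viability relative to DMSO vehicle wells taken as 100%.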

In the case of `C#Cc1c(F)ccc2cc(O)cc(-c3ncc4c(N5CC6CCC(C5)N6)nc(OCC56CCCN5CC(F)C6)nc4c3F)c12` (stereo unspecified) + Cc1[nH]c2ccc(F)cc2c1-c1nc2c3cccnc3c3ncccc3c2[nH]1, the IC50 (second compound 0.0316 µM) is reported as 6330 nM, the IC50 (second compound 0.1 µM) is reported as 5600 nM and the IC50 (second compound 0.316 µM) is reported as 4530 nM. For the same compound, the IC50 (second compound 1 µM) was 3280 nM, the IC50 (second compound 3.16 µM) was < 31.6 nM and the IC50 (second compound 10 µM) was 1360 nM. The viability, T/C [1] was 109%, the viability, T/C [2] was 92.8% and the viability, T/C [3] was 97.8%. For the same compound, the viability, T/C [4] was 99%, the viability, T/C [5] was 82.2% and the viability, T/C [6] was 28.6%. For the same compound, the viability, T/C [7] was 90.9%, the viability, T/C [8] was 106% and the viability, T/C [9] was 94.9%. For the same compound, the viability, T/C [10] was 108%, the viability, T/C [11] was 75.6% and the viability, T/C [12] was 23.9%. The viability, T/C [13] was 80.3%, the viability, T/C [14] was 58.9% and the viability, T/C [15] was 79.3%. The viability, T/C [16] was 59.2%, the viability, T/C [17] was 72.5% and the viability, T/C [18] was 6%. It also gave a viability, T/C [19] of 66.5%, a viability, T/C [20] of 52.8% and a viability, T/C [21] of 64.2%. It also gave a viability, T/C [22] of 54.2%, a viability, T/C [23] of 52.5% and a viability, T/C [24] of 3%. It also gave a viability, T/C [25] of 46.6%, a viability, T/C [26] of 36.7% and a viability, T/C [27] of 35.3%. For the same compound, the viability, T/C [28] was 33.7%, the viability, T/C [29] was 35.2% and the viability, T/C [30] was 0.12%. It also gave a viability, T/C [31] of 47.8%, a viability, T/C [32] of 60.2% and a viability, T/C [33] of 55.2%. It also gave a viability, T/C [34] of 52.9%, a viability, T/C [35] of 42% and a viability, T/C [36] of 0.16%.

For `CC(=O)O[C@H]1C(=O)[C@@]2(C)[C@H]([C@H](OC(=O)c3ccccc3)[C@]3(O)C[C@H](OC(=O)[C@H](O)[C@@H](NC(=O)c4ccccc4)c4ccccc4)C(C)=C1C3(C)C)[C@]1(OC(C)=O)CO[C@@H]1C[C@@H]2O` + Cc1[nH]c2ccc(F)cc2c1-c1nc2c3cccnc3c3ncccc3c2[nH]1, the IC50 (second compound 0.0316 µM) was < 31.6 nM, the IC50 (second compound 0.1 µM) was < 31.6 nM and the IC50 (second compound 0.316 µM) was < 31.6 nM. The IC50 (second compound 1 µM) was < 31.6 nM, the IC50 (second compound 3.16 µM) was < 31.6 nM and the IC50 (second compound 10 µM) was < 31.6 nM. For the same compound, the viability, T/C [1] was 45.6%, the viability, T/C [2] was 19.7% and the viability, T/C [3] was 15.5%. For the same compound, the viability, T/C [4] was 16.5%, the viability, T/C [5] was 13.9% and the viability, T/C [6] was 12.1%. The viability, T/C [7] was 46.6%, the viability, T/C [8] was 21.5% and the viability, T/C [9] was 12.2%. For the same compound, the viability, T/C [10] was 17.6%, the viability, T/C [11] was 15.1% and the viability, T/C [12] was 16.6%. For the same compound, the viability, T/C [13] was 40%, the viability, T/C [14] was 18.9% and the viability, T/C [15] was 16.8%. For the same compound, the viability, T/C [16] was 15.3%, the viability, T/C [17] was 13.7% and the viability, T/C [18] was 16.1%. For the same compound, the viability, T/C [19] was 32.9%, the viability, T/C [20] was 18% and the viability, T/C [21] was 17.2%. For the same compound, the viability, T/C [22] was 17.7%, the viability, T/C [23] was 16.1% and the viability, T/C [24] was 12.7%. The viability, T/C [25] was 20.1%, the viability, T/C [26] was 11% and the viability, T/C [27] was 12.4%. The viability, T/C [28] was 11.6%, the viability, T/C [29] was 10.7% and the viability, T/C [30] was 8.8%. The viability, T/C [31] was 27%, the viability, T/C [32] was 17.1% and the viability, T/C [33] was 15.2%. The viability, T/C [34] was 14.7%, the viability, T/C [35] was 12.7% and the viability, T/C [36] was 12.5%.

`CC[C@@]1(O)C(=O)OCc2c1cc1n(c2=O)Cc2cc3c(CN(C)C)c(O)ccc3nc2-1` + Cc1[nH]c2ccc(F)cc2c1-c1nc2c3cccnc3c3ncccc3c2[nH]1 gave an IC50 (second compound 0.0316 µM) of 53.9 nM, an IC50 (second compound 0.1 µM) of 61.5 nM and an IC50 (second compound 0.316 µM) of 55.9 nM. For the same compound, the IC50 (second compound 1 µM) was 60.7 nM, the IC50 (second compound 3.16 µM) was 46.5 nM and the IC50 (second compound 10 µM) was 24.5 nM. It also gave a viability, T/C (second compound 0.0316 µM, first compound 0.000999 µM) of 97.6%, a viability, T/C (second compound 0.0316 µM, first compound 0.00316 µM) of 92% and a viability, T/C (second compound 0.0316 µM, first compound 0.00999 µM) of 83%. It also gave a viability, T/C [1] of 72.3%, a viability, T/C (second compound 0.0316 µM, first compound 0.0999 µM) of 25% and a viability, T/C [3] of 14.7%. The viability, T/C (second compound 0.1 µM, first compound 0.000999 µM) was 106%, the viability, T/C (second compound 0.1 µM, first compound 0.00316 µM) was 91.9% and the viability, T/C (second compound 0.1 µM, first compound 0.00999 µM) was 91.2%. For the same compound, the viability, T/C [7] was 87.6%, the viability, T/C (second compound 0.1 µM, first compound 0.0999 µM) was 22.5% and the viability, T/C [9] was 17.7%. The viability, T/C (second compound 0.316 µM, first compound 0.000999 µM) was 96.9%, the viability, T/C (second compound 0.316 µM, first compound 0.00316 µM) was 97.9% and the viability, T/C (second compound 0.316 µM, first compound 0.00999 µM) was 90.9%. For the same compound, the viability, T/C [13] was 75.7%, the viability, T/C (second compound 0.316 µM, first compound 0.0999 µM) was 24.1% and the viability, T/C [15] was 9.9%. For the same compound, the viability, T/C (second compound 1 µM, first compound 0.000999 µM) was 98.8%, the viability, T/C (second compound 1 µM, first compound 0.00316 µM) was 96.6% and the viability, T/C (second compound 1 µM, first compound 0.00999 µM) was 108%. The viability, T/C [19] was 74.4%, the viability, T/C (second compound 1 µM, first compound 0.0999 µM) was 30.9% and the viability, T/C [21] was 9.35%. The viability, T/C (second compound 3.16 µM, first compound 0.000999 µM) was 97.6%, the viability, T/C (second compound 3.16 µM, first compound 0.00316 µM) was 100% and the viability, T/C (second compound 3.16 µM, first compound 0.00999 µM) was 80.4%. The viability, T/C [25] was 64.6%, the viability, T/C (second compound 3.16 µM, first compound 0.0999 µM) was 26.2% and the viability, T/C [27] was 9.6%. For the same compound, the viability, T/C (second compound 10 µM, first compound 0.000999 µM) was 63.8%, the viability, T/C (second compound 10 µM, first compound 0.00316 µM) was 69.1% and the viability, T/C (second compound 10 µM, first compound 0.00999 µM) was 84%. It also gave a viability, T/C [31] of 43.7%, a viability, T/C (second compound 10 µM, first compound 0.0999 µM) of 18.7% and a viability, T/C [33] of 8.82%.
